Patent US10800753B2, “Tetrahydrothiophene-based GABA aminotransferase inactivators and analogs thereof for treating neurological disorders” (Northwestern University, priority 2015, dated 2020)

How the values were obtained:
[1] = tested on: aspartate aminotransferase; settings: off-target enzyme, prior art; cited from earlier work
[2] = tested on: GABA-AT; settings: cited from earlier work
[3] = target: CYP2C8 (Homo sapiens (Human), UniProt P10632); experiment: Inhibition of microsomal cytochromes P450: CYP2C8; assay type: in vitro ADME; settings: HLM, paclitaxel substrate, 10 μM, 10 min at 37° C.
Chain of CYP2C8 (P10632 whole entry): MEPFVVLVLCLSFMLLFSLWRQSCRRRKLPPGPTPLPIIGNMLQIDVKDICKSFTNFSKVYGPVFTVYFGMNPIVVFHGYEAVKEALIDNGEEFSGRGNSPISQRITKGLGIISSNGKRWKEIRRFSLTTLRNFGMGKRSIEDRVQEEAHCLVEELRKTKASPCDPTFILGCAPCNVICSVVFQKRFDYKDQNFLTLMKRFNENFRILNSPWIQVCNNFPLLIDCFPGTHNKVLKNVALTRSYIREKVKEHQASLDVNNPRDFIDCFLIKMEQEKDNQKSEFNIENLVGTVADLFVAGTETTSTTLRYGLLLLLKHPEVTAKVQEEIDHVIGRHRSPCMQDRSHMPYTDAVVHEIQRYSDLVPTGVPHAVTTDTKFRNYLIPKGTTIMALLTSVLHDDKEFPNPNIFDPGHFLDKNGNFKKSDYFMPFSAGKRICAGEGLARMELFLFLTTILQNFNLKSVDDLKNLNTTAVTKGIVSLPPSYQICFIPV
Protocol: (§1) Inhibition of Microsomal Cytochromes P450. The experiments were performed by Eurofins Panlabs (Redmond, Wash. 98052, USA). CYP1A inhibition (HLM, phenacetin substrate), CYP2B6 inhibition (HLM, bupropion substrate), CYP2C8 inhibition (HLM, paclitaxel substrate), CYP2C9 inhibition (HLM, diclofenac substrate), CYP2C19 inhibition (HLM, omeprazole substrate), CYP2D6 inhibition (HLM, dextromethorphan substrate), and CYP3A inhibition (HLM, midazolam and testosterone substrates) were tested. The test concentration was 10 μM. The incubation time was 10 min at 37° C. The detection method was by HPLC-MS/MS. The experiments were duplicated, and the % inhibition of the control values was averaged (FIG. 10).

[4] = Metabolic stability in human liver microsomes; assay type: in vitro ADME; settings: over 60 minutes, 0.1 μM, 37° C., LC-MS/MS
Protocol: Measurement of the metabolic stability in HLM was accomplished by incubating 17 with the microsomes and monitoring its disappearance with time using LC-MS/MS. Imipramine, propranolol, terfenadine, and verapamil were run in similar condition as controls. […] Metabolic Stability in Human Liver Microsomes. The experiments were performed by Eurofins Panlabs (Redmond, Wash. 98052, USA). The test concentration of 17 was 0.1 μM. […] The detection method was by LC-MS/MS. Imipramine, propranolol, terfenadine, and verapamil were run in similar condition as controls.

[5] = target: CYP2C19 (Homo sapiens (Human), UniProt P33261); experiment: Inhibition of microsomal cytochromes P450: CYP2C19; assay type: in vitro ADME; settings: HLM, omeprazole substrate, 10 μM, 10 min at 37° C.
Chain of CYP2C19 (P33261 whole entry): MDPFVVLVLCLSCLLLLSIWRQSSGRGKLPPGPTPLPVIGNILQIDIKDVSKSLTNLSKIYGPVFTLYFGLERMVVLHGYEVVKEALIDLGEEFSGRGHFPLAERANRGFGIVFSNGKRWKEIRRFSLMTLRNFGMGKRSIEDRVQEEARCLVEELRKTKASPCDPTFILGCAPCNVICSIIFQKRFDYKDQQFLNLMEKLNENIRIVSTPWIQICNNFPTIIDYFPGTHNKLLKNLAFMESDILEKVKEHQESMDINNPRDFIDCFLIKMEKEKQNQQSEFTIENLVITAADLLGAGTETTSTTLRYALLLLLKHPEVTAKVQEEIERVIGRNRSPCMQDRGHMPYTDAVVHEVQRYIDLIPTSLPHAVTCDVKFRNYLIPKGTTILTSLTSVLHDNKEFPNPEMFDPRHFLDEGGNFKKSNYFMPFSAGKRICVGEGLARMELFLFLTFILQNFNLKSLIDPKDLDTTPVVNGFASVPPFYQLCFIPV
Protocol: as §1

[6] = tested on: CYP3A; experiment: Inhibition of microsomal cytochromes P450: CYP3A; assay type: in vitro ADME, human; settings: HLM, midazolam and testosterone substrates, 10 μM, 10 min at 37° C.
Protocol: as §1

[7] = target: CYP2C9 (Homo sapiens (Human), UniProt P11712); experiment: Inhibition of microsomal cytochromes P450: CYP2C9; assay type: in vitro ADME; settings: HLM, diclofenac substrate, 10 μM, 10 min at 37° C.
Chain of CYP2C9 (P11712 whole entry): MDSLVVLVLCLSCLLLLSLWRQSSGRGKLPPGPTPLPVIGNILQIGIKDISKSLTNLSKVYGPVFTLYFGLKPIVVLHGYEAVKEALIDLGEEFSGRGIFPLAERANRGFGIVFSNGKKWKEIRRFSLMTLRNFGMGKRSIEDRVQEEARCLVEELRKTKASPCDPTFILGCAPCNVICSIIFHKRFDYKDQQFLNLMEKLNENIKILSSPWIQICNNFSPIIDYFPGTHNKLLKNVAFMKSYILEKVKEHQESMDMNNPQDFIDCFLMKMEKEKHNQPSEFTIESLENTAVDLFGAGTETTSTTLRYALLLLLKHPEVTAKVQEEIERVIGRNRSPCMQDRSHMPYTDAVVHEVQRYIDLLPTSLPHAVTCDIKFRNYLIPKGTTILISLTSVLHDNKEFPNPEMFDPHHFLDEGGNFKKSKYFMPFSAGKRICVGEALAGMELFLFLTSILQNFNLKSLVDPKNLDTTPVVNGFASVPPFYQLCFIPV
Protocol: as §1

[8] = tested on: CYP1A; experiment: Inhibition of microsomal cytochromes P450: CYP1A; assay type: in vitro ADME, human; settings: HLM, phenacetin substrate, 10 μM, 10 min at 37° C.
Protocol: as §1

[9] = target: CYP2D6 (Homo sapiens (Human), UniProt P10635); experiment: Inhibition of microsomal cytochromes P450: CYP2D6; assay type: in vitro ADME; settings: HLM, dextromethorphan substrate, 10 μM, 10 min at 37° C.
Chain of CYP2D6 (P10635 whole entry): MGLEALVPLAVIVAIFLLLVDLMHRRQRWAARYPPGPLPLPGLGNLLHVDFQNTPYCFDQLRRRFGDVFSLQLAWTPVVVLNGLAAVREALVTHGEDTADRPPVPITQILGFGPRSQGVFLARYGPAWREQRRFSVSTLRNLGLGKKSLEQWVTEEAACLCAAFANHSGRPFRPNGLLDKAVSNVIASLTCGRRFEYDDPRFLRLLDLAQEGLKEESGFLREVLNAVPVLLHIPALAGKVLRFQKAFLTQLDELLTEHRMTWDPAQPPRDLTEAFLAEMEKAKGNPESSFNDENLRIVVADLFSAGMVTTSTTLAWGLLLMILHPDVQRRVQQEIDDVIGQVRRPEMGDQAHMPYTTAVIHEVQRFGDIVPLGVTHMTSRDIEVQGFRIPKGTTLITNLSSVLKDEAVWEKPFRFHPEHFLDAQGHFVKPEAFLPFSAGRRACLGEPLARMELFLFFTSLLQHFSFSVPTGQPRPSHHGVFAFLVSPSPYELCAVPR
Protocol: as §1

[10] = target: hERG channel (Homo sapiens (Human), UniProt Q12809); experiment: Inhibition of the hERG channel, automated whole-cell patch clamp; assay type: cell-based; settings: hERG CHO-K1 cell line; 0.1 μM, 1 μM, 10 μM; 5 min at room temperature
Chain of hERG channel (Q12809 whole entry): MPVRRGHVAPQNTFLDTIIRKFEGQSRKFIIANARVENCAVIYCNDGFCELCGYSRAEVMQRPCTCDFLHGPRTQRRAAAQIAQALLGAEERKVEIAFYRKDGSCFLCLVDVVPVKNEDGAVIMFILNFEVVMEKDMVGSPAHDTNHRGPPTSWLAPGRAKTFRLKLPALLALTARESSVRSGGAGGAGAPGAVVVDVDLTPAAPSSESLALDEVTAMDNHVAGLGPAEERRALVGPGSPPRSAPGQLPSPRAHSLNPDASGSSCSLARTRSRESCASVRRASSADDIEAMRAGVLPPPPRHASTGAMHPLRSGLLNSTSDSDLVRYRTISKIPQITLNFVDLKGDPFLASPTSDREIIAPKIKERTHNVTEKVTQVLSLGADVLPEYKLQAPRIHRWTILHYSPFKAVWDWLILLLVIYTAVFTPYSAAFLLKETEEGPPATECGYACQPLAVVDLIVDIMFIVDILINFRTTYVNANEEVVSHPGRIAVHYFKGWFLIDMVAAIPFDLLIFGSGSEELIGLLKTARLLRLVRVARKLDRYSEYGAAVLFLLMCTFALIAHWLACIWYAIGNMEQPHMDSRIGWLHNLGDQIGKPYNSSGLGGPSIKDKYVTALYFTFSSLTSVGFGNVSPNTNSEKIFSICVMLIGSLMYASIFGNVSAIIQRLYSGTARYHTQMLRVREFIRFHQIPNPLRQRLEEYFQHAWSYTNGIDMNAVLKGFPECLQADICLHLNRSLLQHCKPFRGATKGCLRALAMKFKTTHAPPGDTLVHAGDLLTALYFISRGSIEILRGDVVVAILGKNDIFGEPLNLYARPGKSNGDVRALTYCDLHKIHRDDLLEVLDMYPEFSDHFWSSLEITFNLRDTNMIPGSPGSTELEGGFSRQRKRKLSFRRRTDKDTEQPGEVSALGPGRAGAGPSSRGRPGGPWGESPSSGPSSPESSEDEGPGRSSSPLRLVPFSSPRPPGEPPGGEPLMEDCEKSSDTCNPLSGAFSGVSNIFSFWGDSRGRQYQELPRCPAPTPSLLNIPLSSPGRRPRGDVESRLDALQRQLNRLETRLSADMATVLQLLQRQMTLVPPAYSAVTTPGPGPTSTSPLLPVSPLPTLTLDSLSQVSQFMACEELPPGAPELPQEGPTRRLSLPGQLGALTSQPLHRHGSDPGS
Protocol: Inhibition of the hERG Channel. The experiments were performed by Eurofins Panlabs (Redmond, Wash. 98052, USA). hERG CHO-K1 cell line was used. The test concentrations were 0.1 μM, 1 μM, and 10 μM. The incubation time was 5 min at room temperature, cumulatively. The detection method used an automated whole-cell patch clamp. The experiments were duplicated, and the % inhibition of the tail current was averaged (FIG. 9).

[11] = target: CYP2B6 (Homo sapiens (Human), UniProt P20813); experiment: Inhibition of microsomal cytochromes P450: CYP2B6; assay type: in vitro ADME; settings: HLM, bupropion substrate, 10 μM, 10 min at 37° C.
Chain of CYP2B6 (P20813 whole entry): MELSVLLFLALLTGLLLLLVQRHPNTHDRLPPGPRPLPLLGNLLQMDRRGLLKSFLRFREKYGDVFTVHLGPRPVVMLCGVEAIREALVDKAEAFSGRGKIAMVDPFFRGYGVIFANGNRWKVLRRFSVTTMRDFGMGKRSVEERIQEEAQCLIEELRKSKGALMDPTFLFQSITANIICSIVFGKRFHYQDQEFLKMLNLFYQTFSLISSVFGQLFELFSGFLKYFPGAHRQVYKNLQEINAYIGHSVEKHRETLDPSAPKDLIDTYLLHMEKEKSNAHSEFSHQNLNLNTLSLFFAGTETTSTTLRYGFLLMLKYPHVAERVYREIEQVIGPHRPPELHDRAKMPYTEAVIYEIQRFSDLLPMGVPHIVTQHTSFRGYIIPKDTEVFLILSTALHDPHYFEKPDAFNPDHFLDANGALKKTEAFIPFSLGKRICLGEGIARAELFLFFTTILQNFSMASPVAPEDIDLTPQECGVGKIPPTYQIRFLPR
Protocol: as §1

[12] = tested on: multiple-hit rat model of infantile spasms; settings: cited from earlier work
[13] = target: GABA aminotransferase (GABA-AT) (Sus scrofa (Pig), UniProt P80147); experiment: Inhibition of GABA-AT, coupled assay with SSDH (IC50 to Ki by Cheng-Prusoff); assay type: biochemical; settings: competitive inhibitor of GABA-AT
Chain of GABA aminotransferase (GABA-AT) (P80147 29-500): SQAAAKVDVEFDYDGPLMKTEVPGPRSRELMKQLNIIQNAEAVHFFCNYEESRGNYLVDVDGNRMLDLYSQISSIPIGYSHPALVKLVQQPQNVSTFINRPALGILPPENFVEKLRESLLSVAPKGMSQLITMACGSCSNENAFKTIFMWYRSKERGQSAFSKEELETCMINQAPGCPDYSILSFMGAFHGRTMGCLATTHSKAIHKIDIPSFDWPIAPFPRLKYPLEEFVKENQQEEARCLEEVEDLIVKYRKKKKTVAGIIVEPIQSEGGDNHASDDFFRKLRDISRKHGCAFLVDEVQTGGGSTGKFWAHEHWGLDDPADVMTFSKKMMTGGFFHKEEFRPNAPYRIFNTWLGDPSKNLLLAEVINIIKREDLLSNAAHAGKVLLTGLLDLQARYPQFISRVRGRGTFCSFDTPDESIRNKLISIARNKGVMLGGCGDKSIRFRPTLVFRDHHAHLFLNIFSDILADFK
Protocol: GABA-AT was isolated and purified from pig brain by a published procedure.
Inhibition constants were determined by monitoring GABA-AT activity in the presence of 0-50 mM concentrations of synthesized analogues using a coupled assay with the enzyme succinic semialdehyde dehydrogenase (SSDH). The assay solution consisted of 10 mM GABA, 5 mM α ketoglutarate, 1 mM NADP^+, 5 mM β-mercaptoethanol, and excess SSDH in 50 mM potassium pyrophosphate buffer, pH 8.5. Enzyme activity was determined by observing the change in absorbance at 340 nm at 25° C. IC50 values were obtained using non-linear regression in GraphPad Prism5 software. […] (Yung-Chi, C.; Prusoff, W. H. Biochem. Pharmacol. 1973, 22, 3099-3108.)

For `N[C@H]1C=C(C(=O)O)SC1` [(S)-4-Amino-4,5-dihydro-2-thiophenecarboxylic acid], the “inactivation or inhibition of aspartate aminotransferase” value [1] is given as “inactivator of aspartate aminotransferase” and the “inactivation of GABA-AT (in words, prior art)” value [2] is given as “known inactivator of GABA-AT”.

In the case of `Cl.N[C@@H]1CS[C@H](C(=O)O)C1` [Compound 17, (2S,4S)-4-Aminotetrahydrothiophene-2-carboxylic acid hydrochloride], the CYP2C8 inhibition [3] is reported as “did not inhibit or induce”, the “metabolized in HLM” value [4] is reported as “less than 20%” and the CYP2C19 inhibition [5] is reported as “did not inhibit or induce”. The CYP3A inhibition [6] was “did not inhibit or induce”, the CYP2C9 inhibition [7] was “did not inhibit or induce” and the CYP1A inhibition [8] was “did not inhibit or induce”. The CYP2D6 inhibition [9] was “did not inhibit or induce”, the “inhibition of the hERG channel (tail current)” value [10] was “did not inhibit” and the CYP2B6 inhibition [11] was “did not inhibit or induce”.

For `C=CC(N)CCC(=O)O` (stereo not shown) [vigabatrin], the “time spasms suppression stayed effective” value [12] is listed as 1 days.

“(2S,4S)-4-aminotetrahydrofuran-2-carboxylic acid (40) and (2R,4R)-4-aminotetrahydrofuran-2-carboxylic acid (51) [mixture of enantiomers 40 and 51]” gave a Ki [13] of 430 µM.
